According to BindingDB's records for doi:10.1016/j.bioorg.2015.09.008 (Gc University, 2015):

Assays:
Acetylcholinesterase = Acetylcholinesterase (Electrophorus electricus, UniProt O42275); experiment: AChE and BChE Assay; conditions: pH 7.7
Description: (§1) The AChE inhibition assay was performed according to the Ellman's method. Total volume of 100 µL reaction mixture contained 60 µL 50 mM Na2HPO4 buffer, pH 7.7. Ten µL test compound (0.5 mM well#1) was added, followed by the addition of10 µL (0.005 unit well#1 AChE, 0.5 unit well#1 BChE, Sigma Inc.) enzyme. […] The reaction was initiated by the addition of 10 µL of 0.5 mM well#1 substrate (acetylthiocholine iodide or butyrylthiocholine chloride, Sigma Inc.), followed bythe addition of 10 µL DTNB from Sigma Inc. (0.5 mM well#1). After 15 min of incubation at 37 °C, absorbance was measured using 96-well plate reader Synergy HT, Biotek, USA. All experiments were carried out with their respective controls in triplicate.

Cholinesterase = Cholinesterase (Homo sapiens, UniProt P06276); experiment: AChE and BChE Assay; conditions: pH 7.7
Sequence of Cholinesterase (P06276 whole entry): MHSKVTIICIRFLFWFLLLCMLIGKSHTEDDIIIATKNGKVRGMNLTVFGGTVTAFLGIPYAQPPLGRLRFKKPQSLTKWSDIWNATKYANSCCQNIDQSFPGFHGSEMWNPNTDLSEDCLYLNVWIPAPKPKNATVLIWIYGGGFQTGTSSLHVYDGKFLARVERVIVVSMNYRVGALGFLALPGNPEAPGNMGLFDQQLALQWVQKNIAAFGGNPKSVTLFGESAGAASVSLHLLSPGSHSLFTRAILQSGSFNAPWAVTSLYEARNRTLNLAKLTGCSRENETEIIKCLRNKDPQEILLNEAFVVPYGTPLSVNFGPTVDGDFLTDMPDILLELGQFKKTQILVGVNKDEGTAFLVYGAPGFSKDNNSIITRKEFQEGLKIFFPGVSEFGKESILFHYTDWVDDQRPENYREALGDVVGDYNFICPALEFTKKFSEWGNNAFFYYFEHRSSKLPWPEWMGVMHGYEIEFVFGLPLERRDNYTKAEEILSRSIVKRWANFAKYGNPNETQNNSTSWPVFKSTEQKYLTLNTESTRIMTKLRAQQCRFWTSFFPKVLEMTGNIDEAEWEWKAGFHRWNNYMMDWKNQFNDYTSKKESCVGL
Description: as §1

Alpha-glucosidase MAL12 = Alpha-glucosidase MAL12 (Saccharomyces cerevisiae (strain ATCC 204508 / S288c), UniProt P53341); experiment: α-Glucosidase Assay; conditions: pH 6.8
Sequence of Alpha-glucosidase MAL12 (P53341 whole entry): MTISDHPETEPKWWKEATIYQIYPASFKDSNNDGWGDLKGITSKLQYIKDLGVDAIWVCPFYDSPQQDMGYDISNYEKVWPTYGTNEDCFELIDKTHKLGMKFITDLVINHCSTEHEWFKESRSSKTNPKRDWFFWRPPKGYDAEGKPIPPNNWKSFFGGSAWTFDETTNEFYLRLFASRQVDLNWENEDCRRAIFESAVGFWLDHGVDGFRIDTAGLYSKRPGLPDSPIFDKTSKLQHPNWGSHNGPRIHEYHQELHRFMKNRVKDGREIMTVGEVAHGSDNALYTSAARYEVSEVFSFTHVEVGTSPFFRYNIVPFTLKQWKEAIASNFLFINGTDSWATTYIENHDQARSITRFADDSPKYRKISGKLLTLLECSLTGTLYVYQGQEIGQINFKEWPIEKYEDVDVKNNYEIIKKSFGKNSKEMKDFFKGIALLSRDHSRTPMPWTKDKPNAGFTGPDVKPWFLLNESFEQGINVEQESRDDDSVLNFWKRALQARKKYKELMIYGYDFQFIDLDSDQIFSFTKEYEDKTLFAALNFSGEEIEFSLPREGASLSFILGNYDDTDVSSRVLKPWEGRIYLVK
Description: The α-glucosidase inhibition activity was performed with slight modifications according to method. […] Thecontents were mixed, preincubated for 10 min at 37 °C and preread at 400 nm. The reaction was initiated by the addition of 10 µL of 0.5 mM substrate (p-nitrophenyl glucopyranoside, Sigma Inc.). After 30 min of incubation at 37 °C, absorbance of the yellow color produced due to the formation of p-nitrophenol was measured at 400 nm using Synergy HT (BioTek, USA) 96-well microplate reader. Acarbose was used as positive control.

Sequence of Acetylcholinesterase (O42275 whole entry): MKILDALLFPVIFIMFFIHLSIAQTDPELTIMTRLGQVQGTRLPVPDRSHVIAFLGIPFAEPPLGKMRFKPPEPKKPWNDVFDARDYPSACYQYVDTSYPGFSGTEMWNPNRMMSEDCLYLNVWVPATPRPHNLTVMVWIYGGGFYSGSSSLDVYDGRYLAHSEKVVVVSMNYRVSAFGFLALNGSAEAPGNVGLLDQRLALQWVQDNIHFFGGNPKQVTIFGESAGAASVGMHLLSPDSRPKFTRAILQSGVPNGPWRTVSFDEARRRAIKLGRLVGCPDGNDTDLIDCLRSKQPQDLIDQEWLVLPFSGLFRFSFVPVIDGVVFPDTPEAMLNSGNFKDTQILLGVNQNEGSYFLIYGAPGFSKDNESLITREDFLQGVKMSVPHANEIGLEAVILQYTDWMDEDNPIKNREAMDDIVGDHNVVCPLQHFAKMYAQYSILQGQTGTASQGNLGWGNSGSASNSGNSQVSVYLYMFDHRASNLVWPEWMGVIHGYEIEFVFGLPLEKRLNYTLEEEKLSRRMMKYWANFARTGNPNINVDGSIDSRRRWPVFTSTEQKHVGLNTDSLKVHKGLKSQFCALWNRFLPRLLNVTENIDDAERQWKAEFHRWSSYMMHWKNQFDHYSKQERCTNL

IC50 (Alpha-glucosidase MAL12)	SMILES	IC50 (Acetylcholinesterase)	IC50 (Cholinesterase)
–	CCS(=O)(=O)NNC(=O)c1cc(C(=O)NNS(=O)(=O)CC)nc(C(=O)NNS(=O)(=O)CC)c1 [N',N'',N'''-(pyridine-2,4,6-tricarbonyl)triethanesulfonohydrazide (4h)]	29.1 µM	112 µM
26.8 µM	O=C(NNS(=O)(=O)c1ccc(Br)cc1)c1cc(C(=O)NNS(=O)(=O)c2ccc(Br)cc2)nc(C(=O)NNS(=O)(=O)c2ccc(Br)cc2)c1 [N',N'',N'''-(pyridine-2,4,6-tricarbonyl)tris(4-bromobenzenesulfonohydrazide) (4b)]	–	–
–	CS(=O)(=O)NNC(=O)c1cc(C(=O)NNS(C)(=O)=O)nc(C(=O)NNS(C)(=O)=O)c1 [N',N'',N'''-(pyridine-2,4,6-tricarbonyl)trimethanesulfonohydrazide (4g)]	10.8 µM	44.8 µM
125 µM	Cc1ccc(S(=O)(=O)NNC(=O)c2cc(C(=O)NNS(=O)(=O)c3ccc(C)cc3)nc(C(=O)NNS(=O)(=O)c3ccc(C)cc3)c2)cc1 [N',N'',N'''-(pyridine-2,4,6-tricarbonyl)tris(4-methylbenzenesulfonohydrazide) (4e)]	–	–
25.6 µM	O=C(NNS(=O)(=O)c1ccc(F)cc1)c1cc(C(=O)NNS(=O)(=O)c2ccc(F)cc2)nc(C(=O)NNS(=O)(=O)c2ccc(F)cc2)c1 [N',N'',N'''-(pyridine-2,4,6-tricarbonyl)tris(4-fluorobenzenesulfonohydrazide (4c)]	–	–

SMILES	IC50 (Alpha-glucosidase MAL12)	IC50 (Acetylcholinesterase)	IC50 (Cholinesterase)
O=C(NNS(=O)(=O)c1ccccc1)c1cc(C(=O)NNS(=O)(=O)c2ccccc2)nc(C(=O)NNS(=O)(=O)c2ccccc2)c1 [N',N'',N'''-(pyridine-2,4,6-tricarbonyl)tribenzenesulfonohydrazide (4a)]	32.2 µM	50.2 µM	43.8 µM
O=C(NNS(=O)(=O)c1ccc(Cl)cc1)c1cc(C(=O)NNS(=O)(=O)c2ccc(Cl)cc2)nc(C(=O)NNS(=O)(=O)c2ccc(Cl)cc2)c1 [N',N'',N'''-(pyridine-2,4,6-tricarbonyl)tris(4-chlorobenzenesulfonohydrazide (4d)]	28.8 µM	–	–
